Measured values: US20110178072A1, “STEREOSPECIFICITY OF METHYLSULFINYL REDUCTION” (priority 2008, published 2011)

Tests used:
ATF3 = assay: Western blot analysis of ATF3 in SK-Hep1 cells grown on Met and Met sulfoxide media; assay type: cell-based, human; conditions: 72 hours, compared with cells on Met or Met-SO
Protocol: Analysis of SK-Hep1 and fRMsr-transfected SK-Hep1 cells—SK-Hep1 and fRMsr-transfected SK-Hep1 cells were plated in 6-well plates at 7.5×10^4 cells/well in regular DMEM medium. The medium was changed to Met-free DMEM supplemented with either Met or individual Met sulfoxides at 24 hours after plating. Cells were then collected every 24 hours until 96 hours. Protein concentration was measured by the Bradford assay and the samples were probed by standard immunoblot assays with polyclonal MsrA (kindly provided by Bertrand Friguet), cystathionine beta synthase (CBS) (kindly provided by Ruma Banerjee), and activating transcription factor 3 (ATF3) (Santa Cruz Biotechnology) antibodies.

[1] = test system: yeast fRMsr-transfected SK-Hep1 cells; assay: Growth and morphology of yeast fRMsr-expressing SK-Hep1 cells on Met sulfoxide media; assay type: cell-based, human; conditions: 0.1 mM
Protocol: Proliferation Assay-Cell growth was quantified using colorimetric MTS assay (Promega). Cells in regular DMEM medium were plated in 96-well plates at 5×10^3 cells/well, washed with PBS, and specialized DMEM media were added that contained Met, Met-SO, Met-RO, or Met-RSO 24 hours after plating. To assay for cell proliferation, a tetrazolium compound [3-(4,5-dimethylthiazol-2-yl)-5-(3-carboxymethoxyphenyl)-2-(4-sulfophenyl)-2H-tetrazolium, inner salt; MTS] and an electron coupling reagent (phenazine methosulfate; PMS) were mixed according to the manufacturer's protocol and then 20 μL of the mixture were added to 100 μL of phenol red-excluded media that further replaced cell culture media. After 90 minutes of incubation at 37° C. in the atmosphere of 5% CO2, cell proliferation was measured at indicated time periods from 0 to 96 hours at 450 nm in a plate reader. Direct counting of viable cells using 0.2% trypan blue was done in 6-well plates. Transfection of […] into SK-Hep1 cells-[…]-tag sequence was cloned at the C-terminus of […] sequence was inserted into a mammalian expression vector, pCI-neo (Promega), and the resulting construct was verified by DNA sequencing. […] To establish a stable cell line, cells were selected in the presence of 800 μg/mL G418 sulfate (Promega), and further maintained in the presence of 400 μg/mL G418 sulfate. […]

Question: For `C[S@@+]([O-])CC[C@H](N)C(=O)O` [Met-RO, methionine-R-sulfoxide], which “Expression levels of ATF3” value (ATF3) is on record?
Answer: low expression levels of ATF3

Question: And the “Growth of fRMsr-transfected cells” value [1]?
Answer: essentially indistinguishable from that of cells grown in the presence of Met

Question: `C[S@+]([O-])CC[C@H](N)C(=O)O` [Met-SO, methionine-S-sulfoxide] was tested. Which “Growth of fRMsr-transfected cells” value [1] did it give?
Answer: essentially indistinguishable from that of cells grown in the presence of Met
